From ChEMBL document CHEMBL1201862, “PubChem BioAssay data set” (2004) come the findings set out here.

Experiment [1] has as its target Mothers against decapentaplegic homolog 3 (Homo sapiens, UniProt P84022). Description: blockers of Smad3 complex formation in lysate – cell lysate, secondary confirmation, chemiluminescent ELISA, HEK293 lysate, dose response (AID 1058). Type of experiment: functional. For orientation: ELISA stands for enzyme-linked immunosorbent assay.
Experiment [2] concerns the target T1, Estrogen receptor beta (Homo sapiens, UniProt Q92731).
Experiment [3] concerns the target T1, Estrogen receptor beta. The experiment is described as follows: blockers of SRC-3 recruitment to ERβ – biochemical, ELISA, streptavidin-HRP readout, orthogonal assay, confirmation (AID 1060).
The target in experiment [4] is T2, Carboxy-terminal domain RNA polymerase II polypeptide A small phosphatase 1 (Homo sapiens, UniProt Q9GZU7).
T2 sequence (Q9GZU7 whole entry): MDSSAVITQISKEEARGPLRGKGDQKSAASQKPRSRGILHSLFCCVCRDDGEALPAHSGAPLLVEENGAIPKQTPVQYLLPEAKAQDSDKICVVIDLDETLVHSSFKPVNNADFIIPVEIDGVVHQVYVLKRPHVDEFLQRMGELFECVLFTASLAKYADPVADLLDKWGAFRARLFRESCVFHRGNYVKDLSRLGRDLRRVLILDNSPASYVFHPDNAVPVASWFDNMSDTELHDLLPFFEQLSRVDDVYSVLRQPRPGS
The experiment is described as follows: CTDSP1 inhibitors, concentration-response, biochemical, absorbance readout, ultra-high-throughput screen actives (AID 540297). Type of experiment: functional.

Experiment [5] addresses T3, Corticotropin-releasing factor receptor 2/Corticotropin-releasing factor-binding protein (Homo sapiens, UniProt P24387+Q13324).
T3 sequence (Q13324 whole entry): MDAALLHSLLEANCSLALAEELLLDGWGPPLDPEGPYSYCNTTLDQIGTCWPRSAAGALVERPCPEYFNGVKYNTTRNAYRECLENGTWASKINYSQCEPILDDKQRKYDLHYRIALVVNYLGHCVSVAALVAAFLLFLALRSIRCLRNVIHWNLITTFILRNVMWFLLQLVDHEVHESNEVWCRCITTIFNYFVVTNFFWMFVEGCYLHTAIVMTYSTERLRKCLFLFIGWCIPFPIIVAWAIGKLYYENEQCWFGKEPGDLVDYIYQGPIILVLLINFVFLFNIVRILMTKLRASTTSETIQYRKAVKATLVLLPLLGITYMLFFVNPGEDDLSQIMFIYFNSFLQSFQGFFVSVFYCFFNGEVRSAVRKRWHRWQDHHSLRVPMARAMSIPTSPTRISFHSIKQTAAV
T3 sequence (P24387 whole entry): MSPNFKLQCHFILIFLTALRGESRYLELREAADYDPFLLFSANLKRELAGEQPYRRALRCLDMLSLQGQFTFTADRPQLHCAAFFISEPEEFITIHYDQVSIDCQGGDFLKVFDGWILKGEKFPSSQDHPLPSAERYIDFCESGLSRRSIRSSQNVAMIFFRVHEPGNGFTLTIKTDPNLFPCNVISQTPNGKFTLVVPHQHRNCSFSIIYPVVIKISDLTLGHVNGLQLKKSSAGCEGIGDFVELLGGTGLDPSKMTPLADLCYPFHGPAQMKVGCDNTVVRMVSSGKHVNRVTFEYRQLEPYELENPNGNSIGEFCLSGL
The experiment is described as follows: activators of CRF receptor 2 with binding protein – uHTS hits, confirmation (AID 602473). Format: functional. The note with it: read-out: EC50_Mean.

Experiment [6] concerns the target Serine/threonine-protein phosphatase PP1-alpha catalytic subunit (Homo sapiens, UniProt P62136). The experiment is described as follows: inhibition of protein phosphatase 1 activity – biochemical, fluorescence, dose response (AID 2403).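 Further: phosphatase turnover of OMFP into fluorescent 3-O-methylfluorescein.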
Experiment [7] deals with T4, Serine/threonine-protein phosphatase (Homo sapiens, UniProt Q9BPW0).
T4 sequence (Q9BPW0 whole entry): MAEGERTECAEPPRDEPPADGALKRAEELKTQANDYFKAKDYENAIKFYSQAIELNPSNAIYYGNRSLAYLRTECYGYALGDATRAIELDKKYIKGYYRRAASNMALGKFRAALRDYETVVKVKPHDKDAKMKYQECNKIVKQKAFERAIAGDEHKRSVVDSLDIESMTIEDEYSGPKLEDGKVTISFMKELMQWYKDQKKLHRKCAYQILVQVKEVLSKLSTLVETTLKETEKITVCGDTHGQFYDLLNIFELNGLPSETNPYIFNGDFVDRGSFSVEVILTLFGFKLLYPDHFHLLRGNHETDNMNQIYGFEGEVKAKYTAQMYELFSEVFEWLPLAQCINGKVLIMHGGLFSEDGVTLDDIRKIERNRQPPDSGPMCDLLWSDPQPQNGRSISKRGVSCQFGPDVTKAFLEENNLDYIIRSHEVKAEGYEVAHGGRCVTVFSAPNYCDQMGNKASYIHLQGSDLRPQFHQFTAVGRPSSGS
The experiment is described as follows: Counterscreen for inhibitors of PP1: fluorescence-based biochemical high throughput dose response assay to identify inhibitors of Protein Phosphatase 5 (PP5). [Related pubchem assays: 2034 (Summary (PP5 inhibitors)), 1987 (PP5 inhibitors in singlate), 2235 (PP1 inhibitors in singlate)]. In general terms: The purpose of a counterscreen is to sort out artefacts and off-target activity.

Experiment [8] addresses T5, Heat shock factor protein 1 (Mus musculus, UniProt P38532).
T5 sequence (P38532 whole entry): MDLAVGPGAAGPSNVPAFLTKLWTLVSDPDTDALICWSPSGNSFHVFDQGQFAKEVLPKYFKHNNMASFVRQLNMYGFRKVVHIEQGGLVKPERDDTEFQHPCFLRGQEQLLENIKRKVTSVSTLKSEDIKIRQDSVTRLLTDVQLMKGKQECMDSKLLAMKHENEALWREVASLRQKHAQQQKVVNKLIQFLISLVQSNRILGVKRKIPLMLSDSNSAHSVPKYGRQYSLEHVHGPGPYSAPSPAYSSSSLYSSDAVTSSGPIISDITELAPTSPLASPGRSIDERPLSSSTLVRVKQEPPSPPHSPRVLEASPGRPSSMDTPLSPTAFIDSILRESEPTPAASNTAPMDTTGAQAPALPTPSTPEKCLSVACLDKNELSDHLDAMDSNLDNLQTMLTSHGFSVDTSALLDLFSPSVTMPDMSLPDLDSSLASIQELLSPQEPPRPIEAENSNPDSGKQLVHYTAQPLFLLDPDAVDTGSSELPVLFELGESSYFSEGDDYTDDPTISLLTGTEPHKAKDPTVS
The experiment is described as follows: enhancement of HSF1-driven luciferase signal – cell-based, NIH3T3, luminescence, dose retest, confirmation (AID 435004).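 Further: stress induced by proteasome inhibitor MG132 added 30 min after compound; luciferase reporter driven by HSF1 response element in NIH3T3 cells; actives raise luminescence as potentiators of the MG132 stress response.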 Type of experiment: functional.

The nature of experiment [9]: NIH-3T3 fibroblast cytotoxicity, dose response, cytotoxicity control, cell-based, fluorescence, Alamar Blue, secondary assay (AID 2327).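 Further: NIH-3T3 mouse fibroblasts cultured with fluconazole at 8 µg/mL.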 Type of experiment: functional. On the technique in general: The colour change of resazurin is a common sign of viable cells or microbes.
The test system of experiment [10] is Streptococcus sp. 'group A'. The experiment is described as follows: Streptococcus pyogenes SK(-)GAS viability under kanamycin – luminescence, BacTiterGlo, confirmation, counter-screen for streptokinase expression inhibitor project, dose response (AID 1900). Format: functional, organism-based.
The nature of experiment [11]: fluconazole-exposed Candida albicans growth modulators – fluorescence, retest, confirmation (AID 2467). Format: functional, cell-based.
The target in experiment [12] is Potassium voltage-gated channel subfamily KQT member 2 (Rattus norvegicus, UniProt O88943, W236L). Description: potentiation of rat KCNQ2 current – cell-based, automated electrophysiology, mechanism study for KCNQ2 potentiator project, dose response (AID 2603). Format: functional.
Sequence of Potassium voltage-gated channel subfamily KQT member 2 (O88943 whole entry W236L): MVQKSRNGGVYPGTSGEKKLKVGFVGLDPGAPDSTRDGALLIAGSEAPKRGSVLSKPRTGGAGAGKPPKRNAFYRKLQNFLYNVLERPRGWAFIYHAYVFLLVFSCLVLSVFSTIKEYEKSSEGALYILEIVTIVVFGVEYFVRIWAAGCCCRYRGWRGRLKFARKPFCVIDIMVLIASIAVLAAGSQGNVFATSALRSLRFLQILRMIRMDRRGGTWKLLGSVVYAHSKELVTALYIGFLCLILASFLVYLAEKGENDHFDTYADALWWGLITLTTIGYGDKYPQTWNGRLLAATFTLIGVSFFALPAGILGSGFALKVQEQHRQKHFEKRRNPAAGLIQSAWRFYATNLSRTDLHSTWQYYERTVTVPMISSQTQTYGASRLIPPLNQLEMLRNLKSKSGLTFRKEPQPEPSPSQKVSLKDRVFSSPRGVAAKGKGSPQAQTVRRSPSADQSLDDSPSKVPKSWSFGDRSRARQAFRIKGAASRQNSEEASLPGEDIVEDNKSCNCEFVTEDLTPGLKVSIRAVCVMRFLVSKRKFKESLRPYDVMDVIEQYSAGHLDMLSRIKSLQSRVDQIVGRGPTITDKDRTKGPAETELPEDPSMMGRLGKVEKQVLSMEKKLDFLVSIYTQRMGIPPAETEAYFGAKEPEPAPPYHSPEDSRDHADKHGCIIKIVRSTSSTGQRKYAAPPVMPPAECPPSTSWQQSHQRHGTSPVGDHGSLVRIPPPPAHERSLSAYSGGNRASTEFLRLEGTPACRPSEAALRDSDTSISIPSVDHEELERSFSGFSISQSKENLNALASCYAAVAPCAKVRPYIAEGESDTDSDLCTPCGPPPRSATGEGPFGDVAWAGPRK
In experiment [13] the test system is Streptococcus. Description: GAS UMAA2166 growth inhibition – luminescence, BacTiterGlo, counter-screen for streptokinase expression inhibitor project, dose response (AID 1915).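 Further: potency for reduction of bacterial viability or growth.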 Type of experiment: functional, organism-based.
The nature of experiment [14]: viability of uninfected HEp-2 cells – cell-based, HTS, cytotoxicity control for RSV inhibitor project, dose response (AID 2410). Format: functional. The settings on record: human respiratory syncytial virus.
Experiment [15] can be described thus: M. tuberculosis H37Rv growth inhibitors, H37Rv strain (AID 1626). Format: functional.

The structures appear in SMILES notation. Active and inactive are the calls of the source.

T1 sequence (Q92731 whole entry): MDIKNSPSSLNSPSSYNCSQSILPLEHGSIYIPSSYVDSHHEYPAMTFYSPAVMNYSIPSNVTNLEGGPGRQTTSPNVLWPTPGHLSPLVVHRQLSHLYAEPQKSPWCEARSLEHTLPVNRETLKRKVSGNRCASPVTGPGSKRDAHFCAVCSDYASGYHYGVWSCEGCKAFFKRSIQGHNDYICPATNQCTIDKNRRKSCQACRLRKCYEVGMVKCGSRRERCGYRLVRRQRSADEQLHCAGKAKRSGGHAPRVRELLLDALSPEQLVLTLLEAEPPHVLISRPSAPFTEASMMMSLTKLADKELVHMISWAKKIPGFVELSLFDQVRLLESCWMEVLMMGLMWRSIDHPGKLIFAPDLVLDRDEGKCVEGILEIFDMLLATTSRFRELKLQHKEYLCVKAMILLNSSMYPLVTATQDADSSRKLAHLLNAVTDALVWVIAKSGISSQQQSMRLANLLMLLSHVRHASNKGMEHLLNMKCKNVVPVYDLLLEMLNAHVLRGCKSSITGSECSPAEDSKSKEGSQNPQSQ
Sequence of Mothers against decapentaplegic homolog 3 (P84022 whole entry): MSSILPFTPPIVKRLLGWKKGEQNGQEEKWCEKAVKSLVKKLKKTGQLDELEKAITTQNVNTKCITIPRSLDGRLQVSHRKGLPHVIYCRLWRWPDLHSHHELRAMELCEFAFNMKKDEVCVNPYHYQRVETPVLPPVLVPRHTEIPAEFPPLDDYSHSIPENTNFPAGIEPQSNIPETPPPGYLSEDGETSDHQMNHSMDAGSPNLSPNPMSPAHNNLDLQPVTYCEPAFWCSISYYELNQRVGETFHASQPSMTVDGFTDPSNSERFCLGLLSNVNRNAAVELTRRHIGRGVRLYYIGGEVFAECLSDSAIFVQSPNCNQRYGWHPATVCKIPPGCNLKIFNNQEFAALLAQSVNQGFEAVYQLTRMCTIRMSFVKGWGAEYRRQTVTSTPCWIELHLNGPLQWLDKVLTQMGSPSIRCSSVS
Sequence of Serine/threonine-protein phosphatase PP1-alpha catalytic subunit (P62136 whole entry): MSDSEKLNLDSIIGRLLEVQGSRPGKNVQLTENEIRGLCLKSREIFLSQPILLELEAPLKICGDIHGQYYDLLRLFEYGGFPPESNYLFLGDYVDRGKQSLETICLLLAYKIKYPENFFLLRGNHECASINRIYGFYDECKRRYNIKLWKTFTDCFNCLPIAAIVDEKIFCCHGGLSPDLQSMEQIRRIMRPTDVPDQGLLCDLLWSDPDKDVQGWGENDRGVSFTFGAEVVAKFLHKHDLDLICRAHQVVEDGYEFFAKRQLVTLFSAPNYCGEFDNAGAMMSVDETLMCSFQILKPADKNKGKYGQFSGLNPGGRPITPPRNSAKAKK

As for `COc1cc(C(c2cc3c(cc2O)OCO3)N2CCCCC2)cc(OC)c1OC` (stereo not given), the IC50 in experiment [1] is 12.5 µM (not active).

As to `CCCc1nc2sc3ccccc3c(=O)c2c(=O)n1Cc1ccco1`, the IC50 in experiment [2] is 11.6 µM (active); in experiment [3], 0.709 µM (not active); in [4], 9.92 µM (active). Moreover, the EC50 in experiment [5] is 13.8 µM (active).

In the case of `O=C(O)c1cc(-c2ccc(Cl)c(Cl)c2)n(-c2ccccc2)n1`, the IC50 in [6] is 5.82 µM (active); in experiment [7] it was > 67 µM (not active). In experiment [8], the EC50 is > 260 µM (inactive).

For `O=C(Cc1ccccc1)N/N=C/c1cc(Br)cc(Cl)c1O`, the EC50 in experiment [9] was > 150 µM (inactive); in [10], 1.05 µM (active); in experiment [11], 4.68 µM (active); in experiment [12], 7.13 µM (active); in experiment [13], 1.73 µM (active).

As for `Cc1cc(-c2ccc(/C=N/n3cnnc3)o2)ccc1Cl`, the CC50 in experiment [14] was > 50 µM (active). Besides, the IC50 in experiment [15] is > 100 µM (active).

In general, IC50 refers to the concentration that inhibits the measured activity by half. Broadly, the CC50 is the concentration giving 50% cytotoxicity.
